Data published in paper PMC11121837, “Impact of Nitric Oxide-Release Kinetics on Antifungal Activity” (Journal of Fungi, 2024).
Converted amounts (≈) assume the structure as drawn.

Tests used:
Candida albicans = assay: Susceptibility assay (MIC, broth microdilution, CLSI M27); type: cell-based; settings: for MIC: 24 h; for NO dose at MIC: calculated NO dose at MIC
[1] = test system: Aspergillus fumigatus spores; assay: Susceptibility assay for sporulating fungi (MIC, EUCAST E.Def.9.4); type: cell-based; settings: for Selectivity Index (IC50 AIR-100 / MIC): A. fumigatus ATCC 1022; for MIC / NO dose at MIC: ATCC1022, Aspergillus fumigatus ATCC 1022 spores; for NO dose at MIC: calculated NO dose at MIC
C. auris (MYA-5001) = type: cell-based, Candida auris
[2] = test system: C. neoformans (ATCC 208821); assay: Checkerboard assay of NO donors with antifungals; type: cell-based, Cryptococcus neoformans
[3] = Characterization of NO release (chemiluminescence nitric oxide analyzer); type: physicochemical
[4] = test system: C. neoformans (ATCC208821); type: cell-based, Cryptococcus neoformans
[5] = test system: MatTek EpiAirway tissue (AIR-100); assay: cells; type: cell-based; settings: Homo sapiens, 24 h, read-out: IC50 (concentration needed to inhibit tissue viability by 50%)
C. auris (ATCC MYA-5001) = assay: Checkerboard assay of NO donors with antifungals; type: cell-based, Candida auris
Candida auris = assay: Susceptibility assay (MIC, broth microdilution, CLSI M27); type: cell-based; settings: for MIC / NO dose at MIC: Candidozyma auris; for MIC: 24 h; for NO dose at MIC: calculated NO dose at MIC
Cryptococcus neoformans = assay: as above; type: cell-based; settings: for MIC / NO dose at MIC: Cryptococcus neoformans; for MIC: 72 h; for NO dose at MIC: calculated NO dose at MIC
[6] = test system: C. albicans (ATCC MYA-2876); assay: Checkerboard assay of NO donors with antifungals; type: cell-based, Candida albicans
[7] = ATCC14053, Candida albicans ATCC 14053
[8] = ATCC18804, Candida albicans ATCC 18804
[9] = NO donor combined with 5-fluorocytosine
[10] = NO donor combined with amphotericin B
[11] = NO donor combined with butenafine
[12] = NO donor combined with caspofungin
[13] = NO donor combined with fluconazole
[14] = NO donor combined with miconazole
[15] = phosphate-buffered saline 10 mM, pH 7.4, 37 °C
[16] = Cryptococcus neoformans ATCC MYA-4566
[17] = Cryptococcus neoformans ATCC MYA-4567
[18] = ATCC208821, 72 h, Cryptococcus neoformans ATCC 208821
[19] = ATCC208821, Cryptococcus neoformans ATCC 208821

**Q.** What does the source list for NCCN(CCN)/[N+]([O-])=N/O [DETA/NO, diethylenetriamine/NO]?
**A.** MIC (Candida albicans; [7]): 625 µg/mL (≈ 3830 µM); NO dose at MIC (Candida albicans; [7]): 117 µg/mL; MIC (Candida albicans; [8]): 625 µg/mL (≈ 3830 µM); NO dose at MIC (Candida albicans; [8]): 117 µg/mL; Selectivity Index (IC50 AIR-100 / MIC) (Candida albicans; C. albicans ATCC 14053): 77; Selectivity Index (IC50 AIR-100 / MIC) (Candida albicans; C. albicans ATCC 18804): 77; Selectivity Index (IC50 AIR-100 / MIC) (Candida albicans; C. albicans ATCC MYA-2876): 383; MIC (Candida albicans; Candida albicans ATCC MYA-2876): 125 µg/mL (≈ 766 µM); NO dose at MIC (Candida albicans; Candida albicans ATCC MYA-2876): 23.5 µg/mL; Selectivity Index (IC50 AIR-100 / MIC) [1]: 150; MIC [1]: 320 µg/mL (≈ 1960 µM); NO dose at MIC [1]: 60.5 µg/mL; change in MIC or MFCs after serial passaging (C. auris (MYA-5001)): no change; checkerboard classification [2, 9]: I (indifferent (I)); ∑FIC [2, 9]: ≥ 1; checkerboard classification [2, 10]: I (indifferent (I)); ∑FIC [2, 10]: ≥ 1; checkerboard classification [2, 11]: A (additive (A)); ∑FIC [2, 11]: 0.500; checkerboard classification [2, 12]: I (indifferent (I)); ∑FIC [2, 12]: ≥ 1; checkerboard classification [2, 13]: I (indifferent (I)); ∑FIC [2, 13]: ≥ 1; checkerboard classification [2, 14]: A (additive (A)); ∑FIC [2, 14]: 0.562; [NO]t, total NO released over full duration ([3]; pH 7.4): 6.3 ± 0.6 µmol/mg; [NO]max, maximum instantaneous NO concentration [3, 15]: 735 ± 94 ppb mg^−1; td, duration of NO release [3, 15]: 107.6 ± 19.9 h; change in MIC or MFCs after serial passaging [4]: no change; IC50 [5]: 48000 µg/mL (≈ 294000 µM); checkerboard classification (C. auris (ATCC MYA-5001); [9]): I (indifferent (I)); ∑FIC (C. auris (ATCC MYA-5001); [9]): ≥ 1; checkerboard classification (C. auris (ATCC MYA-5001); [10]): I (indifferent (I)); ∑FIC (C. auris (ATCC MYA-5001); [10]): ≥ 1; checkerboard classification (C. auris (ATCC MYA-5001); [11]): I (indifferent (I)); ∑FIC (C. auris (ATCC MYA-5001); [11]): ≥ 1; checkerboard classification (C. auris (ATCC MYA-5001); [12]): I (indifferent (I)); ∑FIC (C. auris (ATCC MYA-5001); [12]): ≥ 1; checkerboard classification (C. auris (ATCC MYA-5001); [13]): I (indifferent (I)); ∑FIC (C. auris (ATCC MYA-5001); [13]): ≥ 1; checkerboard classification (C. auris (ATCC MYA-5001); [14]): I (indifferent (I)); ∑FIC (C. auris (ATCC MYA-5001); [14]): ≥ 1; Selectivity Index (IC50 AIR-100 / MIC) (Candida auris; C. auris ATCC MYA-5000): 77; Selectivity Index (IC50 AIR-100 / MIC) (Candida auris; C. auris ATCC MYA-5001): 1595; Selectivity Index (IC50 AIR-100 / MIC) (Candida auris; C. auris ATCC MYA-5003): 154; MIC (Candida auris; Candida auris ATCC MYA-5000): 625 µg/mL (≈ 3830 µM); MIC (Candida auris; Candida auris ATCC MYA-5001): 30 µg/mL (≈ 184 µM); MIC (Candida auris; Candida auris ATCC MYA-5003): 310 µg/mL (≈ 1900 µM); NO dose at MIC (Candida auris; Candida auris ATCC MYA-5000): 117 µg/mL; NO dose at MIC (Candida auris; Candida auris ATCC MYA-5001): 5.65 µg/mL; NO dose at MIC (Candida auris; Candida auris ATCC MYA-5003): 58.4 µg/mL; Selectivity Index (IC50 AIR-100 / MIC) (Cryptococcus neoformans; C. neoformans ATCC 208821): 191; Selectivity Index (IC50 AIR-100 / MIC) (Cryptococcus neoformans; C. neoformans ATCC MYA-4566): 613; Selectivity Index (IC50 AIR-100 / MIC) (Cryptococcus neoformans; C. neoformans ATCC MYA-4567): 154; MIC (Cryptococcus neoformans; [16]): 78 µg/mL (≈ 478 µM); MIC (Cryptococcus neoformans; [17]): 310 µg/mL (≈ 1900 µM); MIC (Cryptococcus neoformans; [18]): 250 µg/mL (≈ 1530 µM); NO dose at MIC (Cryptococcus neoformans; [19]): 47 µg/mL; NO dose at MIC (Cryptococcus neoformans; [16]): 14.7 µg/mL; NO dose at MIC (Cryptococcus neoformans; [17]): 58.4 µg/mL; checkerboard classification [6, 9]: I (indifferent (I)); ∑FIC [6, 9]: ≥ 1; checkerboard classification [6, 10]: I (indifferent (I)); ∑FIC [6, 10]: ≥ 1; checkerboard classification [6, 11]: I (indifferent (I)); ∑FIC [6, 11]: ≥ 1; checkerboard classification [6, 12]: I (indifferent (I)); ∑FIC [6, 12]: ≥ 1; checkerboard classification [6, 13]: I (indifferent (I)); ∑FIC [6, 13]: ≥ 1; checkerboard classification [6, 14]: S (Synergistic (S)); ∑FIC [6, 14]: 0.375

**Q.** Which results are given for NCCCNCCCCN(CCCN)/[N+]([O-])=N/O [SPER/NO, spermine/NO]?
**A.** MIC (Candida albicans; [7]): 250 µg/mL (≈ 953 µM); NO dose at MIC (Candida albicans; [7]): 38.6 µg/mL; MIC (Candida albicans; [8]): 150 µg/mL (≈ 572 µM); NO dose at MIC (Candida albicans; [8]): 23.1 µg/mL; Selectivity Index (IC50 AIR-100 / MIC) (Candida albicans; C. albicans ATCC 14053): 82; Selectivity Index (IC50 AIR-100 / MIC) (Candida albicans; C. albicans ATCC 18804): 137; Selectivity Index (IC50 AIR-100 / MIC) (Candida albicans; C. albicans ATCC MYA-2876): 164; MIC (Candida albicans; Candida albicans ATCC MYA-2876): 125 µg/mL (≈ 476 µM); NO dose at MIC (Candida albicans; Candida albicans ATCC MYA-2876): 19.2 µg/mL; Selectivity Index (IC50 AIR-100 / MIC) [1]: 293; MIC [1]: 70 µg/mL (≈ 267 µM); NO dose at MIC [1]: 10.7 µg/mL; change in MIC or MFCs after serial passaging (C. auris (MYA-5001)): no changes; checkerboard classification [2, 9]: I (indifferent (I)); ∑FIC [2, 9]: ≥ 1; checkerboard classification [2, 10]: I (indifferent (I)); ∑FIC [2, 10]: ≥ 1; checkerboard classification [2, 11]: A (additive (A)); ∑FIC [2, 11]: 0.562; checkerboard classification [2, 12]: I (indifferent (I)); ∑FIC [2, 12]: ≥ 1; checkerboard classification [2, 13]: I (indifferent (I)); ∑FIC [2, 13]: ≥ 1; checkerboard classification [2, 14]: S (Synergistic (S)); ∑FIC [2, 14]: 0.500; [NO]max, maximum instantaneous NO concentration [3, 15]: 7535 ± 222 ppb mg^−1; [NO]t, total NO released over full duration [3, 15]: 5.1 ± 0.2 µmol/mg; td, duration of NO release [3, 15]: 14.8 ± 2.9 h; outcome of passaging at sub-MIC dose [4]: yeast death after the second passage; IC50 [5]: 20000 µg/mL (≈ 76200 µM); checkerboard classification (C. auris (ATCC MYA-5001); [9]): I (indifferent (I)); ∑FIC (C. auris (ATCC MYA-5001); [9]): ≥ 1; checkerboard classification (C. auris (ATCC MYA-5001); [10]): I (indifferent (I)); ∑FIC (C. auris (ATCC MYA-5001); [10]): ≥ 1; checkerboard classification (C. auris (ATCC MYA-5001); [11]): I (indifferent (I)); ∑FIC (C. auris (ATCC MYA-5001); [11]): ≥ 1; checkerboard classification (C. auris (ATCC MYA-5001); [12]): I (indifferent (I)); ∑FIC (C. auris (ATCC MYA-5001); [12]): ≥ 1; checkerboard classification (C. auris (ATCC MYA-5001); [13]): I (indifferent (I)); ∑FIC (C. auris (ATCC MYA-5001); [13]): ≥ 1; checkerboard classification (C. auris (ATCC MYA-5001); [14]): S (Synergistic (S)); ∑FIC (C. auris (ATCC MYA-5001); [14]): 0.375; Selectivity Index (IC50 AIR-100 / MIC) (Candida auris; C. auris ATCC MYA-5000): 164; Selectivity Index (IC50 AIR-100 / MIC) (Candida auris; C. auris ATCC MYA-5001): 82; Selectivity Index (IC50 AIR-100 / MIC) (Candida auris; C. auris ATCC MYA-5003): 164; MIC (Candida auris; Candida auris ATCC MYA-5000): 125 µg/mL (≈ 476 µM); MIC (Candida auris; Candida auris ATCC MYA-5001): 250 µg/mL (≈ 953 µM); MIC (Candida auris; Candida auris ATCC MYA-5003): 125 µg/mL (≈ 476 µM); NO dose at MIC (Candida auris; Candida auris ATCC MYA-5000): 19.2 µg/mL; NO dose at MIC (Candida auris; Candida auris ATCC MYA-5001): 38.6 µg/mL; NO dose at MIC (Candida auris; Candida auris ATCC MYA-5003): 19.2 µg/mL; Selectivity Index (IC50 AIR-100 / MIC) (Cryptococcus neoformans; C. neoformans ATCC 208821): 41; Selectivity Index (IC50 AIR-100 / MIC) (Cryptococcus neoformans; C. neoformans ATCC MYA-4566): 1079; Selectivity Index (IC50 AIR-100 / MIC) (Cryptococcus neoformans; C. neoformans ATCC MYA-4567): 263; MIC (Cryptococcus neoformans; [16]): 19 µg/mL (≈ 72.4 µM); MIC (Cryptococcus neoformans; [17]): 78 µg/mL (≈ 297 µM); MIC (Cryptococcus neoformans; [18]): 500 µg/mL (≈ 1910 µM); NO dose at MIC (Cryptococcus neoformans; [19]): 76.8 µg/mL; NO dose at MIC (Cryptococcus neoformans; [16]): 3.08 µg/mL; NO dose at MIC (Cryptococcus neoformans; [17]): 12 µg/mL; checkerboard classification [6, 9]: I (indifferent (I)); ∑FIC [6, 9]: ≥ 1; checkerboard classification [6, 10]: I (indifferent (I)); ∑FIC [6, 10]: ≥ 1; checkerboard classification [6, 11]: I (indifferent (I)); ∑FIC [6, 11]: ≥ 1; checkerboard classification [6, 12]: I (indifferent (I)); ∑FIC [6, 12]: ≥ 1; checkerboard classification [6, 13]: I (indifferent (I)); ∑FIC [6, 13]: ≥ 1; checkerboard classification [6, 14]: S (Synergistic (S)); ∑FIC [6, 14]: 0.265
